The first assay deals with human TPH1 (Homo sapiens (Human), UniProt P17752). Nature of the assay: Biochemical in vitro assay using fluorescence readout (TPH1 inhibition). Conditions: full length human TPH1, 40 μM L-tryptophan, 15° C., 60 minutes, fluorescence at 540 nm; mean if determined several times.
Chain of human TPH1 (P17752 whole entry): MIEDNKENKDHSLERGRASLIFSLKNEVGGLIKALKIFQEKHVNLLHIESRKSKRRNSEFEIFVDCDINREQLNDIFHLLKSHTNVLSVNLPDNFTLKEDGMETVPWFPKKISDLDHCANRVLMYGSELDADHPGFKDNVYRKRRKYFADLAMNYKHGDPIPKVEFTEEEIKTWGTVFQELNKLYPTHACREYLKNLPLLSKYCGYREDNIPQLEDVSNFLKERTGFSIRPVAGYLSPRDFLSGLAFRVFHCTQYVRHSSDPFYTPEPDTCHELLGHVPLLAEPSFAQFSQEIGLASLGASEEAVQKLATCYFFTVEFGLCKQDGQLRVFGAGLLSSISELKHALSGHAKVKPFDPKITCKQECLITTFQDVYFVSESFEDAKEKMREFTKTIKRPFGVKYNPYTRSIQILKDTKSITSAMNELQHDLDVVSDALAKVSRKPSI
For the compound `Cc1nn2c3c(nc2s1)CCN(C(=O)COc1ccc(N2CCC(F)(F)CC2)nc1Cl)C3c1ccc(Cl)cc1F` (stereo not drawn) [Example 1.4.32, 1-(5-(4-Chloro-2-fluorophenyl)-2-methyl-7,8-dihydro-[1,3,4]thiadiazolo[2′,3′:2,3]imidazo[4,5-c]pyridin-6(5H)-yl)-2-((2-chloro-6-(4,4-difluoropiperidin-1-yl)pyridin-3-yl)oxy)ethanone], half-maximal inhibition (IC50) required 3 nM.

Compound `Cc1nn2c3c(nc2s1)CCN(C(=O)COc1ccc(N2CCOCC2)nc1Cl)C3c1csc(CO)c1` (stereo not drawn) [Example 1.45.1, 2-((2-Chloro-6-morpholinopyridin-3-yl)oxy)-1-(5-(5-(hydroxymethyl)-thiophen-3-yl)-2-methyl-7,8-dihydro-[1,3,4]thiadiazolo[2′,3′:2,3]imidazo[4,5-c]pyridin-6(5H)-yl)ethanone] registered an IC50 of 33 nM.

The same assay, now with this note: human TPH1, fluorescence readout.
Regarding `COC(=O)c1ccc(C2c3c(nc4sc(C)nn34)CCN2C(=O)COc2ccc(N3CCOCC3)nc2Cl)o1` (stereo not drawn) [Example 1.26.1, Methyl 5-(6-(2-((2-chloro-6-morpholinopyridin-3-yl)oxy)acetyl)-2-methyl-5,6,7,8-tetrahydro-[1,3,4]thiadiazolo [2′,3′:2,3]imidazo[4,5-c]pyridin-5-yl)furan-2-carboxylate], the IC50 came out at 10 nM. On to `CS(=O)(=O)Nc1ccc(OCC(=O)N2CCc3nc4sc(CF)nn4c3C2c2ccc(Cl)cc2F)c(Cl)n1` (stereo not drawn) [Example 7.1.1, N-(6-chloro-5-(2-(5-(4-chloro-2-fluorophenyl)-2-(fluoromethyl)-7,8-dihydro-[1,3,4]thiadiazolo[2′,3′:2,3-]imidazo[4,5-c]pyridin-6(5H)-yl)-2-oxoethoxy)pyridin-2-yl)methanesulfonamide], for which inhibition was half-maximal at 8 nM (IC50). Turning to `Cc1cnc(C2c3c(nc4sc(C)nn34)CCN2C(=O)COc2ccc(C#N)nc2Cl)c(F)c1` (stereo not drawn) [Example 1.31.3, 6-chloro-5-(2-(5-(3-fluoro-5-methylpyridin-2-yl)-2-methyl-7,8-dihydro-[1,3,4]thiadiazolo[2′,3′:2,3]imidazo[4,5-c]pyridin-6(5H)-yl)-2-oxoethoxy)picolinonitrile], the IC50 amounted to 36 nM. Same read-out and setting: under `Cc1nn2c3c(nc2s1)CCN(C(=O)COc1ccc(C(=O)N(C)C2CC2)nc1Cl)C3c1ccc(Cl)cc1F` (stereo not drawn) [Example 1.4.46, 6-chloro-5-(2-(5-(4-chloro-2-fluorophenyl)-2-methyl-7,8-dihydro-[1,3,4]thiadiazolo[2′,3′:2,3]imidazo[4,5-c]pyridin-6(5H)-yl)-2-oxoethoxy)-N-cyclopropyl-N-methylpicolinamide] stands 16 nM. Turning to `CCc1nc(C)ccc1OC1(C(=O)N2CCc3nc4sc(C)nn4c3C2c2ccc(C3CC3)cc2F)CC1` (stereo not drawn) [Example 1.6.18, (5-(4-cyclopropyl-2-fluorophenyl)-2-methyl-7,8-dihydro-[1,3,4]thiadiazolo[2′,3′:2,3]imidazo[4,5-c]pyridin-6(5H)-yl)(1-((2-ethyl-6-methylpyridin-3-yl)oxy)cyclopropyl)methanone], the IC50 turned out to be 186 nM. In the case of `Cc1nn2c3c(nc2s1)CCN(C(=O)C1(Oc2ccc(C(=O)N(C)C)nc2Cl)CC1)C3c1ccc(Cl)cc1F` (stereo not drawn) [Example 1.4.57, 6-chloro-5-(1-(5-(4-chloro-2-fluorophenyl)-2-methyl-5,6,7,8-tetrahydro-[1,3,4]thiadiazolo[2′,3′:2,3]imidazo[4,5-c]pyridine-6-carbonyl)cyclopropoxy)-N,N-dimethylpicolinamide], the IC50 was 39 nM.

As to `Cc1nn2c3c(nc2s1)CCN(C(=O)COc1ccc(NS(C)(=O)=O)nc1Cl)C3c1cnc(C(=O)N(C)C)s1` (stereo not drawn) [Example 1.34.3, 5-(6-(2-((2-chloro-6-(methylsulfonamido)pyridin-3-yl)oxy)acetyl)-2-methyl-5,6,7,8-tetrahydro-[1,3,4]thiadiazolo [2′,3′:2,3]imidazo[4,5-c]pyridin-5-yl)-N,N-dimethylthiazole-2-carboxamide], 104 nM corresponded to half-maximal inhibition (IC50). `Cc1cc(Cl)ccc1OCC(=O)N1CCc2nc3sccn3c2C1c1cccnc1F` (stereo not drawn) [Example 6.2.5, 2-(4-chloro-2-methylphenoxy)-1-(5-(2-fluoropyridin-3-yl)-7,8-dihydrothiazolo[2′,3′:2,3]imidazo[4,5-c]pyridin-6(5H)-yl)ethanone] had an IC50 of 26 nM. Same read-out and setting: under `CCc1nc(N2CCCS2(=O)=O)ccc1OCC(=O)N1CCc2nc3sc(C(F)(F)F)nn3c2C1c1sc(C)nc1C` (stereo not drawn) [Example 5.4.1, 1-(5-(2,4-dimethylthiazol-5-yl)-2-(trifluoromethyl)-7,8-dihydro-[1,3,4]thiadiazolo[2′,3′:2,3]imidazo[4,5-c]pyridin-6(5H)-yl)-2-((6-(1,1-dioxidoisothiazolidin-2-yl)-2-ethylpyridin-3-yl)oxy)ethanone] stands 25 nM.

The compound `CCc1nc(C)ccc1OCC(=O)N1CCc2nc3sccn3c2C1c1c(C)noc1C` (stereo not drawn) [Example 6.5.1, 1-(5-(3,5-dimethylisoxazol-4-yl)-7,8-dihydrothiazolo-[2′,3′:2,3]imidazo[4,5-c]pyridin-6(5H)-yl)-2-((2-ethyl-6-methylpyridin-3-yl)oxy)ethanone] came in with an IC50 of 117 nM.

`Cc1nn2c3c(nc2s1)CCN(C(=O)COc1ccc(-c2ncco2)nc1Cl)C3c1ccc(Cl)cc1F` (stereo not drawn) [Example 1.4.47, 1-(5-(4-chloro-2-fluorophenyl)-2-methyl-7,8-dihydro-[1,3,4]thiadiazolo[2′,3′:2,3]imidazo[4,5-c]pyridin-6(5H)-yl)-2-((2-chloro-6-(oxazol-2-yl)pyridin-3-yl)oxy)etha-none] yielded an IC50 of 10 nM. For `CCc1nc(NS(C)(=O)=O)ccc1OCC(=O)N1CCc2nc3sc(C(F)F)nn3c2C1c1ccc(Cl)cc1F` (stereo not drawn) [Example 8.1.2, N-(5-(2-(5-(4-chloro-2-fluorophenyl)-2-(difluoromethyl)-7,8-dihydro-[1,3,4]thiadiazolo[2′,3′:2,3]imidazo[4,5-c]pyridin-6(5H)-yl)-2-oxoethoxy)-6-ethylpyridin-2-yl)methanesulfonamide], 10 nM corresponded to half-maximal inhibition (IC50). Regarding `Cc1nn2c3c(nc2s1)CCN(C(=O)COc1ccc(N2CCOCC2)nc1Cl)C3c1cc(CN(C)C)cs1` (stereo not drawn) [Example 1.8.1, 2-((2-chloro-6-morpholinopyridin-3-yl)oxy)-1-(5-(4-((dimethylamino)methyl)thiophen-2-yl)-2-methyl-7,8-dihydro-[1,3,4]thiadiazolo[2′,3′:2,3]imidazo[4,5-c]pyridin-6(5H)-yl)ethanone], the IC50 was 18 nM.

The compound `COc1ccc(C2c3c(nc4sccn34)CCN2C(=O)COc2ccc(Cl)cc2Cl)cc1OC` (stereo not drawn) [Example 6.1.3, 2-(2,4-dichlorophenoxy)-1-(5-(3,4-dimethoxyphenyl)-7,8-dihydrothiazolo[2′,3′:2,3]imidazo[4,5-c]pyridin-6(5H)-yl)ethanone] yielded an IC50 of 7 nM. As to `CCc1nc(C)ccc1OCC(=O)N1CCc2nc3sc(C)nn3c2C1c1ccc(C2CC2)cc1F` (stereo not drawn) [Example 1.6.8, 1-(5-(4-cyclopropyl-2-fluorophenyl)-2-methyl-7,8-dihydro-[1,3,4]thiadiazolo[2′,3′:2,3]imidazo[4,5-c]pyridin-6(5H)-yl)-2-((2-ethyl-6-methylpyridin-3-yl)oxy)ethanone], the IC50 was found to be 23 nM. On the same count and under the same terms, for `CNC(=O)c1cc(F)c(C2c3c(nc4sc(C)nn34)CCN2C(=O)COc2ccc(N3CC(F)(F)C3)nc2Cl)s1` (stereo not drawn) [Example 1.25.5, 5-(6-(2-((2-chloro-6-(3,3-difluoroazetidin-1-yl)pyridin-3-yl)oxy)acetyl)-2-methyl-5,6,7,8-tetrahydro-[1,3,4]thiadiazolo [2′,3′:2,3]imidazo[4,5-c]pyridin-5-yl)-4-fluoro-N-methylthiophene-2-carboxamide] the value was 7 nM; for `CS(=O)(=O)Nc1ccc(OCC(=O)N2CCc3nc4sc(C(F)(F)F)nn4c3C2c2ccc(Cl)cc2F)c(Cl)n1` (stereo not drawn) [Example 5.1.1, N-(6-chloro-5-(2-(5-(4-chloro-2-fluorophenyl)-2-(trifluoromethyl)-7,8-dihydro-[1,3,4]thiadiazolo-[2′,3′:2,3]imidazo[4,5-c]pyridin-6(5H)-yl)-2-oxoethoxy)pyridin-2-yl)methanesulfonamide], 50 nM. On the same count and under the same terms, under `Cc1nn2c3c(nc2s1)CCN(C(=O)COc1ccc(C#N)cc1Cl)C3c1scnc1C` (stereo not drawn) [Example 1.32.2, 3-chloro-4-(2-(2-methyl-5-(4-methylthiazol-5-yl)-7,8-dihydro-[1,3,4]thiadiazolo[2′,3′:2,3]imidazo[4,5-c]pyridin-6(5H)-yl)-2-oxoethoxy)benzonitrile] stands 83 nM. For `COC1(c2cnc(C3c4c(nc5sc(C)nn45)CCN3C(=O)COc3ccc(N4CCOCC4)nc3Cl)s2)COC1` (stereo not drawn) [Example 1.65.1, 2-((2-chloro-6-morpholinopyridin-3-yl)oxy)-1-(5-(5-(3-methoxyoxetan-3-yl)thiazol-2-yl)-2-methyl-7,8-dihydro-[1,3,4]thiadiazolo[2′,3′:2,3]imidazo[4,5-c]pyridin-6(5H)-yl)ethanone], the IC50 turned out to be 208 nM. `Cc1nn2c3c(nc2s1)CCN(C(=O)COc1ccc(N2CCCS2(=O)=O)nc1Cl)C3c1ccc(Cl)cc1F` (stereo not drawn) [Example 1.4.49, 1-(5-(4-chloro-2-fluorophenyl)-2-methyl-7,8-dihydro-[1,3,4]thiadiazolo[2′,3′:2,3]imidazo[4,5-c]pyridin-6(5H)-yl)-2-((2-chloro-6-(1,1-dioxidoisothiazolidin-2-yl)pyridin-3-yl)oxy)ethanone] registered an IC50 of 9 nM. For `Cc1nn2c3c(nc2s1)CCN(C(=O)COc1ccc(C(F)(F)F)cc1Cl)C3c1scnc1C` (stereo not drawn) [Example 1.32.3, 2-(2-chloro-4-(trifluoromethyl)phenoxy)-1-(2-methyl-5-(4-methylthiazol-5-yl)-7,8-dihydro-[1,3,4]thiadiazolo [2′,3′:2,3]imidazo[4,5-c]pyridin-6(5H)-yl)ethanone], the IC50 is 10 nM. In turn, `COc1ccc2c(OCC(=O)N3CCc4nc5sc(C)nn5c4C3c3ccc(Cl)cc3F)cc(C)nc2c1` (stereo not drawn) [Example 1.4.63, 1-(5-(4-chloro-2-fluorophenyl)-2-methyl-7,8-dihydro-[1,3,4]thiadiazolo[2′,3′:2,3]imidazo[4,5-c]pyridin-6(5H)-yl)-2-((7-methoxy-2-methylquinolin-4-yl)oxy)ethan-1-one] came in with an IC50 of 65 nM.

As usually defined, the IC50 is the concentration needed to halve the response being measured. Read a high IC50 as a need for much substance.

Values taken from patent US9765092B2, “Tricyclic piperidine compounds” (ACTELION PHARMACEUTICALS LTD, priority 2013, dated 2017).
